Measured values as given in patent publication US20210198277A1, “AMINE-SUBSTITUTED ARYL OR HETEROARYL COMPOUNDS” (Epizyme, Inc., priority 2016, published 2021).
pIC50: −log10 of the molar value. Read-outs that look alike come from different tables or passages of the source.

Key:
human EHMT2 913-1193 = target: T1, human EHMT2 913-1193 (Homo sapiens, UniProt Q96KQ7); experiment: EHMT2 enzyme assay on histone peptide substrate (EHMT2 PEP); format: biochemical; conditions: for IC50: Table III, read-out: EHMT2 PEP (IC50 μM); for pIC50: Table VI, read-out: EHMT2 PEP IC50
T1 construct: recombinant purified human EHMT2 913-1193, Viva; purchased Viva
T1 sequence (Q96KQ7 913-1193): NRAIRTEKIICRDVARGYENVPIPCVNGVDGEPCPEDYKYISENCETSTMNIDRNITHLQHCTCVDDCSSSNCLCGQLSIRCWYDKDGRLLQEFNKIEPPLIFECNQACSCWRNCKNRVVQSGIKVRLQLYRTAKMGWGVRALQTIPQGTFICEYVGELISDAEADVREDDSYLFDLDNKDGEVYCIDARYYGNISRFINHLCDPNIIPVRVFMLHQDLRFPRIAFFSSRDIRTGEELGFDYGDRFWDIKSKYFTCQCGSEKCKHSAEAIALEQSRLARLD
In short: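 Compounds (10-point, 3-fold dilutions, top 50 μM final, 2% DMSO) preincubated 30 min with 0.031 nM EHMT2 in 20 mM Bicine pH 7.5, 0.002% Tween 20, 0.005% gelatin, 1 mM TCEP. Biotinylated histone peptide methylated with ^3H-SAM 60 min at room temperature. Quenched with unlabeled SAM; product captured on streptavidin Flashplate, scintillation counted.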

EHMT1 = target: T2, EHMT1 (Homo sapiens, UniProt Q9H9B1); experiment: EHMT1 enzyme assay on peptide substrate (EHMT1 PEP); format: biochemical; conditions: for IC50: Table III, read-out: EHMT1 PEP (IC50 μM); for pIC50: Table VI, read-out: EHMT1 PEP IC50
T2 sequence (Q9H9B1 1-1298): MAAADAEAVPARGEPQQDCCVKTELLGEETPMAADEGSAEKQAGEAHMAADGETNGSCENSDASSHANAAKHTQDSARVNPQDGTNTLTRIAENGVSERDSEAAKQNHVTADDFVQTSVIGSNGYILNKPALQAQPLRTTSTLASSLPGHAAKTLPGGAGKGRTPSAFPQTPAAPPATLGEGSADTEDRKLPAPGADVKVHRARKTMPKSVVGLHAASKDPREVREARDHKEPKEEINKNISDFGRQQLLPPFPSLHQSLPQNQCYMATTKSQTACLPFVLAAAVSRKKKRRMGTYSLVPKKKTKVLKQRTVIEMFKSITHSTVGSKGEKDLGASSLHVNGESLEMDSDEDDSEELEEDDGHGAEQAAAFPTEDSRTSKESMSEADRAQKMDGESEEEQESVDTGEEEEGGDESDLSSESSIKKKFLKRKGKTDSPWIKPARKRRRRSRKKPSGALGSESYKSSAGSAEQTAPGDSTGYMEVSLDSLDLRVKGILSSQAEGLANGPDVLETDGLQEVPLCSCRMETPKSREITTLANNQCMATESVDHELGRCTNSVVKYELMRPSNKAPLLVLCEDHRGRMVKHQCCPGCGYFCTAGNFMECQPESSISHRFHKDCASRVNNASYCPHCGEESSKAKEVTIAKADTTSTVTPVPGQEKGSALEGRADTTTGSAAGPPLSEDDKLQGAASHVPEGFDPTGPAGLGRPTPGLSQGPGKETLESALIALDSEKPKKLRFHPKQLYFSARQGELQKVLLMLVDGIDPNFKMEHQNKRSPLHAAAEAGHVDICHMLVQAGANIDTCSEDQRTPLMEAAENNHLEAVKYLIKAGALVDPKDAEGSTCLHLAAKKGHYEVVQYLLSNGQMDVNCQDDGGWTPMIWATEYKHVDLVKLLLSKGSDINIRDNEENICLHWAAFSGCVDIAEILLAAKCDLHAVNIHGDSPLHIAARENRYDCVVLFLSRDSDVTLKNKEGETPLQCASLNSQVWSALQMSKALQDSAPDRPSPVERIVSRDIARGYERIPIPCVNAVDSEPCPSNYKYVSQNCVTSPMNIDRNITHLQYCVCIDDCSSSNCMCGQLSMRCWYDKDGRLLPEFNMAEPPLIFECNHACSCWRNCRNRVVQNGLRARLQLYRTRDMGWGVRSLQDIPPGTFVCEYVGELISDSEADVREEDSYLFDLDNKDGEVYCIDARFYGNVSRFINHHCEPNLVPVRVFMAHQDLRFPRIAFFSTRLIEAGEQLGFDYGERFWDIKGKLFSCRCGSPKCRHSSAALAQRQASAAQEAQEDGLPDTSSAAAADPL

Row | Compound | IC50 (human EHMT2 913-1193) | IC50 (EHMT1) | pIC50 (human EHMT2 913-1193) | pIC50 (EHMT1)
1 | CNc1cc(C)nc(Nc2ccc(OC)c(C#CC3CCCN3C)c2)n1 (stereo not drawn) [Compound 848] | – | – | > 7.00 | > 7.00
2 | COc1ccc(Nc2nc(C)cc(NC(C)C)n2)cc1OC[C@@H]1CCNC1 [Compound 800] | – | – | > 7.00 | > 7.00
3 | COc1ccc(Nc2ccnc(NCC3CCN(C(C)=O)CC3)n2)cc1OCCCN1CCCC1 [Compound 340] | 0.1 to 1 µM | 0.1 to 1 µM | – | –
4 | CNc1cc(C)nc(Nc2cc(OCCCN3CCCC3)c3oncc3c2)n1 [Compound 793] | – | – | < 5.00 | < 5.00
5 | COc1cc2c(C3CCOCC3)cc(=O)[nH]c2cc1OCCCN1CCCC1 [Compound 822] | – | – | < 5.00 | < 5.00
6 | CCN1CC(COc2cc(Nc3nc(C)cc4[nH]ccc34)ncc2OC)C1 [Compound 613] | – | – | 6.00 to 7.00 | > 7.00
7 | COc1cc2c(C3CCN(C)CC3)cc(N3CCCCC3)nc2cc1OCCCN1CCCC1 [Compound 812] | – | – | > 7.00 | > 7.00
8 | COc1cc(NC2CCOCC2)ncc1OCC1CCNC1 (stereo not drawn) [Compound 806] | – | – | 5.00 to 6.00 | 5.00 to 6.00
9 | COc1ccc(OCCCN2CCCC2)cc1Nc1nccc(NCC2CCOCC2)n1 [Compound 351] | > 10 µM | > 10 µM | – | –
10 | COc1cc2c(C3CCN(CC(F)(F)F)CC3)cc(C)nc2cc1OCCCN1CCCC1 [Compound 837] | – | – | 6.00 to 7.00 | 6.00 to 7.00
11 | CNc1cc(C)nc(Nc2cc(OCCCN3CCCC3)c3nc(C)cn3c2)n1 [Compound 616] | – | – | 5.00 to 6.00 | 6.00 to 7.00
12 | CNc1cc(C2CCN(C(C)=O)CC2)c2cc(OC)c(OCCCN3CCCC3)cc2n1 [Compound 809] | – | – | > 7.00 | > 7.00
13 | COc1cc(N(C)C2CCOCC2)ncc1OCC1CCNC1 (stereo not drawn) [Compound 808] | – | – | < 5.00 | 5.00 to 6.00
14 | CNc1cc(C)nc(Nc2ccc(OC)c(C#CCN3CCN(C)CC3)c2)n1 [Compound 860] | – | – | < 5.00 | < 5.00
15 | COc1cc2c(C)nc(N3CCCCC3)nc2cc1OCCCN1CCCC1 [Compound 811] | – | – | < 5.00 | < 5.00
16 | CNc1cc(C)nc(Nc2ccc(OC)c(OC[C@H]3C[C@H](N(C)C)C3)c2)n1 [Compound 330] | > 10 µM | 1 to 10 µM | – | –
17 | COc1cc2c(C3CCN(CC(F)(F)F)CC3)nc(C)nc2cc1OCCCN1CCCC1 [Compound 841] | – | – | < 5.00 | < 5.00
18 | COc1cnc(Nc2nccc3nccn23)cc1OC[C@@H]1CCNC1 [Compound 801] | – | – | < 5.00 | < 5.00
19 | CNc1cc(C)nc(Nc2ccc(OC)c(CN[C@H]3CCNC3)c2)n1 [Compound 813] | – | – | 5.00 to 6.00 | 6.00 to 7.00
20 | CNc1cc(C2CCN(CCOC)CC2)c2cc(OC)c(OCCCN3CCCC3)cc2n1 [Compound 839] | – | – | > 7.00 | > 7.00
21 | CNc1cc(C2CCN(CCC(F)(F)F)CC2)c2cc(OC)c(OCCCN3CCCC3)cc2n1 [Compound 832] | – | – | > 7.00 | > 7.00

Now from value to compound:

Row | IC50 (human EHMT2 913-1193) | IC50 (EHMT1) | pIC50 (human EHMT2 913-1193) | pIC50 (EHMT1) | Compound
22 | < 0.1 µM | < 0.1 µM | – | – | CNc1cnnc(Nc2cc(OCCCN3CCCC3)c(OC)cn2)c1 [Compound 322, N^3-(5-methoxy-4-(3-(pyrrolidin-1-yl)propoxy)pyridin-2-yl)-N^5-methylpyridazine-3,5-diamine]
23 | < 0.1 µM | < 0.1 µM | – | – | CNc1cc(C)nc(Nc2cnc(OC)c(OCCCN3CCCC3)c2)n1 [Compound 332, N^2-(6-methoxy-5-(3-(pyrrolidin-1-yl)propoxy)pyridin-3-yl)-N^4,6-dimethylpyrimidine-2,4-diamine]
24 | 1 to 10 µM | 1 to 10 µM | – | – | COc1ccc(Nc2nccc(Nc3cccc(F)c3)n2)cc1OCCCN1CCCC1 [Compound 349]
25 | – | – | < 5.00 | < 5.00 | COc1cnc(Nc2nn(C)c3cnccc23)cc1OCCCN1CCCC1 [Compound 795]
26 | – | – | > 7.00 | > 7.00 | CNc1cc(C(C)C)c2cc(OC)c(OCCCN3CCCC3)cc2n1 [Compound 817]
27 | > 10 µM | > 10 µM | – | – | COc1ccc(Nc2cccc3ncnn23)cc1OCCCN1CCCC1 [Compound 344]
28 | > 10 µM | > 10 µM | – | – | COc1ccc(Nc2cc3c(cn2)ncn3C)cc1OCCCN1CCCC1 [Compound 258, N-(4-methoxy-3-(3-(pyrrolidin-1-yl)propoxy)phenyl)-1-methyl-1H-imidazo[4,5-c]pyridin-6-amine]
29 | > 10 µM | > 10 µM | – | – | COc1ccc(Nc2nccc(-n3nc(C)cc3C)n2)cc1OCCCN1CCCC1 [Compound 338]
30 | > 10 µM | > 10 µM | – | – | COc1ccc(Nc2nccc(-c3cnn(C)c3)n2)cc1OCCCN1CCCC1 [Compound 348]
31 | > 10 µM | > 10 µM | – | – | COc1ccc(Nc2ccc3cnn(C)c3n2)cc1OCCCN1CCCC1 [Compound 257, N-(4-methoxy-3-(3-(pyrrolidin-1-yl)propoxy)phenyl)-1-methyl-1H-pyrazolo[3,4-b]pyridin-6-amine]
32 | > 10 µM | > 10 µM | – | – | CNCc1cnc(Nc2ccc(OC)c(OCCCN3CCCC3)c2)nc1 [Compound 339]
33 | – | – | 5.00 to 6.00 | 5.00 to 6.00 | CNc1cc2nccn2c(Nc2cc(OCCCN3CCCC3)c(OC)cn2)n1 [Compound 611]
34 | 1 to 10 µM | 1 to 10 µM | – | – | CCn1nc(Nc2nccc3[nH]ccc23)cc1COCCN1CCCC1 [Compound 333]
35 | – | – | 5.00 to 6.00 | 6.00 to 7.00 | CNc1cc(C)nc(Nc2cc(OCCCN3CCCC3)c3nccn3c2)n1 [Compound 618]
36 | 0.1 to 1 µM | 0.1 to 1 µM | – | – | CNc1ccnc(Nc2ccc(OC)c(OCCCN3CC[C@@H](F)C3)c2)n1 [Compound 353]
37 | > 10 µM | > 10 µM | – | – | COc1ccc(Nc2ccc3nn(C)cc3c2)cc1OCCCN1CCCC1 [Compound 345]
38 | 1 to 10 µM | 1 to 10 µM | – | – | CNc1cc(Nc2cc(OCCCN3CCCC3)c(OC)cn2)nc(C)n1 [Compound 325, N^4-(5-methoxy-4-(3-(pyrrolidin-1-yl)propoxy)pyridin-2-yl)-N^6,2-dimethylpyrimidine-4,6-diamine]
39 | – | – | < 5.00 | < 5.00 | COc1ccc(Nc2cc(C)n(C)n2)cc1OCCCN1CCCC1 [Compound 797]
